Measurements published in patent US20090075916A1, “Use of Macrolide Derivatives for Treating Acne” (priority 2005, published 2009).
≈ marks a conversion by molar mass, not a printed value.

How the values were obtained:
Assay in all cases: MIC, agar dilution (NCCLS M11-A5), anaerobic
[1] = system: sensitive P. acnes isolates (Propionibacterium acnes 6523, ATCC 6919, clinical isolate, I and II); assay type: cell-based; conditions: Cutibacterium acnes, sensitive P. acnes isolates: 6523, ATCC 6919, clinical isolate, 48 hours anaerobic
[2] = system: resistant P. acnes (NDDR I and II) isolates; assay type: cell-based, Propionibacterium acnes; conditions: Cutibacterium acnes
All the P. acnes isolate = assay type: cell-based, Propionibacterium acnes

Structure (SMILES): CC[C@H]1OC(=O)[C@H](C)[C@@H](O[C@H]2C[C@@](C)(OC)[C@@H](O)[C@H](C)O2)[C@H](C)[C@@H](O[C@@H]2O[C@H](C)C[C@H](N(C)C)[C@H]2O)[C@](C)(O)C[C@@H](C)CN(C)[C@H](C)[C@@H](O)[C@]1(C)O [Azithromycin]
- MIC [1]: 0.06 to 0.5 µg/mL (≈ 0.0801 to 0.668 µM)
- MIC [2]: > 16 µg/mL

Structure (SMILES): CC[C@H]1OC(=O)[C@H](C)C(=O)[C@H](C)[C@@H](O[C@@H]2O[C@H](C)C[C@H](N(C)C)[C@H]2O)[C@](C)(OC)C[C@@H](C)C(=O)[C@H](C)[C@H]2N(CCCCn3cnc(-c4cccnc4)c3)C(=O)O[C@]12C [Telithromycin]
- MIC [2]: 2 µg/mL (≈ 2.46 µM)

Structure (SMILES): CC[C@H]1OC(=O)[C@H](C)[C@@H](O[C@H]2C[C@@](C)(OC)[C@@H](O)[C@H](C)O2)[C@H](C)[C@@H](O[C@@H]2O[C@H](C)C[C@H](N(C)C)[C@H]2O)[C@](C)(O)C[C@@H](C)C(=O)[C@H](C)[C@@H](O)[C@]1(C)O [Erythromycin]
- MIC [1]: 0.06 to 0.5 µg/mL (≈ 0.0818 to 0.681 µM)
- MIC [2]: > 16 µg/mL

Structure (SMILES): Cc1ncc([N+](=O)[O-])n1CCO [metronidazole]
- susceptibility of P. acnes isolates (in words) (All the P. acnes isolate): resistance

Structure (SMILES): CCC[C@@H]1C[C@@H](C(=O)N[C@@H]([C@H]2O[C@H](SC)[C@H](O)[C@@H](O)[C@H]2O)[C@H](C)Cl)N(C)C1 [Clindamycin]
- MIC [1]: 0.25 µg/mL (≈ 0.588 µM)
- MIC [2]: 16 µg/mL (≈ 37.6 µM)

Structure (SMILES): CC[C@H]1OC(=O)[C@H](C)[C@@H](O[C@H]2C[C@@](C)(OC)[C@@H](O)[C@H](C)O2)[C@H](C)[C@@H](O[C@@H]2O[C@H](C)C[C@H](N(C)C)[C@H]2O)[C@](C)(OC)C[C@@H](C)C(=O)[C@H](C)[C@@H](O)[C@]1(C)O [Clarithromycin]
- MIC [1]: 0.06 to 0.5 µg/mL (≈ 0.0802 to 0.668 µM)
- MIC [2]: > 16 µg/mL
